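Results reflect a 48-hour exposure of cells in 96-well plates to compound at five concentrations. GI50: concentration for 50% inhibition of growth.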 The source made the active and inactive calls. Rule as the data show it: active = GI50 up to about 1.1 µM and inactive = higher.
Columns and labels:
Experiment in all cases: inhibition of tumour cell growth, NCI panel, 48 h
NCI-H226 = tested on: NCI-H226
SK-OV-3 = tested on: SK-OV-3
HCC 2998 = tested on: HCC 2998
A498 = tested on: A498
MOLT-4 = tested on: MOLT-4
SNB-75 = tested on: SNB-75
SN12C = tested on: SN12C
M14 = tested on: M14
ACHN = tested on: ACHN
IGROV-1 = tested on: IGROV-1
UACC-257 = tested on: UACC-257
SW-620 = tested on: SW-620
Malme-3M = tested on: Malme-3M
SF-539 = tested on: SF-539
MDA-N = tested on: MDA-N
NCI-H460 = tested on: NCI-H460
MCF7 = tested on: MCF7
HOP-62 = tested on: HOP-62
OVCAR-8 = tested on: OVCAR-8
LOX IMVI = tested on: LOX IMVI

Measured: GI50

O=C(NCCNCCO)N/N=C/c1ccc(Cl)cc1
inactive: NCI-H226 > 100 µM | SK-OV-3 > 100 µM | HCC 2998 > 100 µM | A498 > 100 µM | MOLT-4 > 100 µM | SNB-75 36.1 µM | SN12C > 100 µM | M14 > 100 µM | ACHN > 100 µM | IGROV-1 > 100 µM | UACC-257 > 100 µM | SW-620 > 100 µM | Malme-3M > 100 µM | SF-539 > 100 µM | MDA-N > 100 µM | NCI-H460 > 100 µM | MCF7 > 100 µM | HOP-62 > 100 µM | OVCAR-8 > 100 µM

S=c1[nH]nc(Cn2c3ccc(Br)cc3c3nc4ccccc4nc32)o1
inactive: NCI-H226 > 77.3 µM | SK-OV-3 > 78.5 µM | HCC 2998 38.8 µM | A498 43.9 µM | MOLT-4 27.1 µM | SNB-75 86.1 µM | SN12C 51.9 µM | M14 4.55 µM | ACHN 39.6 µM | IGROV-1 31.9 µM | UACC-257 > 58.6 µM | SW-620 18.7 µM | Malme-3M 42.3 µM | SF-539 30.4 µM | MDA-N 41 µM | NCI-H460 36.9 µM | MCF7 39 µM | HOP-62 29.9 µM | OVCAR-8 43.2 µM

Clc1sc(Cl)c2c1[C@@H](Cl)C[C@@H]2Br
inactive: SK-OV-3 > 100 µM | HCC 2998 > 100 µM | MOLT-4 18.6 µM | SNB-75 > 100 µM | SN12C > 100 µM | M14 > 100 µM | ACHN > 100 µM | IGROV-1 72.9 µM | UACC-257 70.1 µM | SW-620 45.6 µM | Malme-3M 22.8 µM | MDA-N 84.3 µM | NCI-H460 71.1 µM | MCF7 43.8 µM | HOP-62 > 100 µM | OVCAR-8 > 100 µM | LOX IMVI 33.8 µM

CSc1csc(-c2ccc(-c3ccc(-c4cc(SC)cs4)s3)s2)c1
inactive: NCI-H226 > 100 µM | SK-OV-3 > 100 µM | HCC 2998 > 100 µM | MOLT-4 > 100 µM | SNB-75 > 100 µM | SN12C > 100 µM | M14 > 100 µM | ACHN > 100 µM | IGROV-1 > 100 µM | UACC-257 > 100 µM | SW-620 > 100 µM | Malme-3M > 100 µM | SF-539 > 100 µM | MDA-N > 100 µM | NCI-H460 > 100 µM | MCF7 > 100 µM | HOP-62 > 100 µM | LOX IMVI > 100 µM

NC1=NCC(CN2CCOCC2)O1 (stereo unspecified)
inactive: SK-OV-3 > 100 µM | HCC 2998 > 100 µM | A498 > 100 µM | MOLT-4 > 100 µM | SNB-75 62.2 µM | SN12C > 100 µM | M14 > 100 µM | ACHN > 100 µM | IGROV-1 > 100 µM | UACC-257 > 100 µM | SW-620 > 100 µM | Malme-3M > 100 µM | SF-539 > 100 µM | MDA-N > 100 µM | NCI-H460 > 100 µM | MCF7 > 100 µM | HOP-62 > 100 µM | OVCAR-8 > 100 µM | LOX IMVI > 100 µM

COc1ccc(-c2c(/C=N/OCC(=O)O)c3sc4ccccc4n3c2/C=N/OCC(=O)O)cc1
inactive: SK-OV-3 > 50 µM | HCC 2998 > 50 µM | MOLT-4 > 50 µM | SNB-75 > 50 µM | SN12C > 50 µM | M14 > 50 µM | ACHN > 50 µM | IGROV-1 > 50 µM | UACC-257 > 50 µM | SW-620 > 50 µM | Malme-3M > 50 µM | MDA-N > 50 µM | NCI-H460 > 50 µM | MCF7 > 50 µM | HOP-62 > 50 µM | OVCAR-8 > 50 µM | LOX IMVI > 50 µM

Oc1ccc(-c2cc(-c3c(O)cc(O)cc3O)on2)cc1
inactive: NCI-H226 70.8 µM | SK-OV-3 56.5 µM | HCC 2998 66.4 µM | MOLT-4 38.5 µM | SNB-75 74.5 µM | SN12C 80.5 µM | M14 > 100 µM | ACHN 36.4 µM | IGROV-1 51.1 µM | UACC-257 97.5 µM | SW-620 65.6 µM | Malme-3M 70.5 µM | SF-539 31.9 µM | MDA-N 50.2 µM | NCI-H460 40.3 µM | MCF7 89.5 µM | HOP-62 > 100 µM | OVCAR-8 55.6 µM | LOX IMVI 55.1 µM

Cc1cc(C)nc(NS(=O)(=O)c2ccc(Nc3c4ccccc4nc4c(C(=O)NCCO)cccc34)cc2)n1
inactive: SK-OV-3 44.9 µM | HCC 2998 10.4 µM | A498 38.5 µM | MOLT-4 4.79 µM | SNB-75 3.27 µM | SN12C 15 µM | M14 31.1 µM | ACHN 19.7 µM | IGROV-1 25.8 µM | UACC-257 > 10 µM | SW-620 16.7 µM | Malme-3M 14.8 µM | MDA-N 18.1 µM | NCI-H460 14.1 µM | MCF7 18 µM | HOP-62 9.31 µM | OVCAR-8 8.24 µM | LOX IMVI 10.6 µM

CCOP(=O)(/C=C\n1cc(C)c(=O)[nH]c1=O)OCC
inactive: NCI-H226 > 100 µM | SK-OV-3 > 100 µM | A498 > 100 µM | MOLT-4 > 100 µM | SNB-75 > 100 µM | SN12C > 100 µM | M14 > 100 µM | ACHN > 100 µM | IGROV-1 > 100 µM | UACC-257 > 100 µM | SW-620 > 100 µM | SF-539 > 100 µM | MDA-N > 100 µM | NCI-H460 > 100 µM | MCF7 > 100 µM | HOP-62 > 100 µM | OVCAR-8 > 100 µM | LOX IMVI > 100 µM

CC12CC(c3ccccc3O1)C(C(=O)Nc1cccc(F)c1)C(=O)N2 (stereo unspecified)
inactive: SK-OV-3 > 100 µM | HCC 2998 > 100 µM | A498 > 100 µM | MOLT-4 18.8 µM | M14 90.4 µM | ACHN > 100 µM | IGROV-1 40.7 µM | UACC-257 40.2 µM | SW-620 84.9 µM | Malme-3M > 100 µM | SF-539 > 100 µM | MDA-N 54 µM | NCI-H460 47.2 µM | MCF7 44.7 µM | HOP-62 > 100 µM | OVCAR-8 24.4 µM | LOX IMVI 49 µM

c1ccc2c(c1)SCCCSCCSCCCS2
inactive: SK-OV-3 > 100 µM | HCC 2998 > 100 µM | MOLT-4 > 100 µM | SNB-75 > 100 µM | SN12C > 100 µM | M14 > 100 µM | IGROV-1 > 100 µM | UACC-257 > 100 µM | SW-620 > 100 µM | SF-539 > 100 µM | MDA-N > 100 µM | NCI-H460 > 100 µM | MCF7 > 100 µM | HOP-62 > 100 µM | OVCAR-8 > 100 µM | LOX IMVI > 100 µM

C=C1CC[C@@H]2[C@](C)(COC(=O)CCC(=O)OC)CCC[C@@]2(C)[C@@H]1CCC1=CC(=O)OC1
inactive: NCI-H226 74.3 µM | SK-OV-3 > 100 µM | A498 > 100 µM | MOLT-4 17.4 µM | SN12C > 100 µM | M14 > 100 µM | ACHN > 100 µM | IGROV-1 > 100 µM | UACC-257 > 100 µM | SW-620 46.5 µM | Malme-3M > 100 µM | SF-539 > 100 µM | MDA-N 56 µM | NCI-H460 > 100 µM | MCF7 38.1 µM | HOP-62 > 100 µM | OVCAR-8 63 µM | LOX IMVI 55.3 µM

CNC(=S)N/N=C(\C)c1ccc(OC)cc1O
inactive: NCI-H226 73.8 µM | SK-OV-3 > 100 µM | HCC 2998 > 100 µM | A498 95.7 µM | MOLT-4 3.33 µM | SNB-75 > 100 µM | SN12C > 91.4 µM | M14 > 100 µM | ACHN > 100 µM | IGROV-1 22.5 µM | UACC-257 > 100 µM | SW-620 > 100 µM | Malme-3M > 100 µM | SF-539 > 100 µM | MDA-N > 100 µM | NCI-H460 > 100 µM | HOP-62 > 100 µM | OVCAR-8 > 100 µM | LOX IMVI > 100 µM

COC(=O)Nc1nc2cc(S(=O)(=O)N3CCOCC3)ccc2[nH]1
inactive: NCI-H226 > 100 µM | SK-OV-3 > 100 µM | A498 > 100 µM | MOLT-4 94.4 µM | SNB-75 69.8 µM | SN12C > 100 µM | M14 > 100 µM | ACHN > 100 µM | IGROV-1 > 100 µM | UACC-257 > 100 µM | SW-620 54.1 µM | Malme-3M > 100 µM | SF-539 12.4 µM | MDA-N 27.6 µM | NCI-H460 > 100 µM | MCF7 > 100 µM | HOP-62 91.8 µM | OVCAR-8 > 100 µM | LOX IMVI > 100 µM

CC(=O)C(C)C(=O)N1C(=O)N(C)C2(C)N(C)C(=O)NC12C (stereo unspecified)
inactive: SK-OV-3 > 100 µM | HCC 2998 > 100 µM | SNB-75 > 100 µM | SN12C > 100 µM | M14 > 100 µM | ACHN > 100 µM | IGROV-1 > 100 µM | Malme-3M > 100 µM | SF-539 > 100 µM | MDA-N > 100 µM | NCI-H460 > 100 µM | MCF7 > 100 µM | HOP-62 > 100 µM
